Entries after “also recorded” stand apart in the source; their conditions may differ.
Legend:
[1] = system: mice; conditions: administration of anandamide or high doses of acetaminophen; Umathe et al. 2009; cited from earlier work
[2] = system: BTBR mice; test: three-chamber social approach test in BTBR mice; type: in vivo, mouse
From the text: (§1) BTBR T+tf/J, 129S1/SvImJ and C57BL/6 mouse colony founders were originally obtained from the Jackson Laboratory (Bar Harbor, Me., USA). These strains were bred in the animal facilities of the University of Texas Health Science Center at San Antonio through 2 generations. After weaning at 23-25 days of age, male littermates were housed in groups of 4-5 per cage until behavioral testing at 3-4 months of age. Mice had ad libitum access to food (Teklad™ rodent diet, Harlan, Indianapolis, Ind., USA) and water in ventilated clear plastic cages lined with chipped wood bedding.
(§2) The cannabinoid agonist WIN55,212-2 (Ascent Scientific, Princeton, N.J., USA) was dissolved initially in dimethyl-sulfoxide (DMSO Sigma) and was diluted with saline (1:10) to administer 0.1 mg/kg i.p. in 10% DMSO to mice. […] Injections were given 30 minutes prior to introduction to the testing arena for conditioning, and 50 min prior to behavior testing.
The three-chamber sociability testing procedure for mice is described in detail in Yang et al. Curr. Protoc. Neurosci., Chapter 8: Unit 8. 26 (2011), our study was conducted in a manner consistent with that protocol. Mice were introduced into the center chamber of an acrylic three-chamber sociability arena, measuring 30×22×61 cm with a light tan bottom, black side walls and two transparent interior walls with slat door openings of 10 cm^2 […] dividing the arena into 3 chambers, for 20 min prior to behavioral testing. As described in Gould et al. J. Neurochem., 116: 291-303 (2011), pre-conditioning was performed under low red light (16 lux) at first for 10 min with the mouse confined in the center chamber, then with the doors opened so the subject could explore the entire arena for 10 min longer. Just prior to testing, subjects were briefly confined in the center chamber while an empty wire cup cage was placed at one end of the arena, and a stranger mouse of the same strain was placed under an identical cup cage at the opposite end. Stranger mice were neither litter- nor cage-mates of the subjects and were housed in a separate ventilated cage rack. Stranger mice were pre-conditioned under cup cages in 3 sessions of 30 min each in the day(s) prior to testing, separated by 1 hour reprises in their home cages. Cup cages were topped with weighted jars (9 cm high×7 cm diameter) to prevent mice from climbing on top of them. Digital video cameras (Hewlett-Packard Photosmart™ R742, Palo Alto, Calif., USA) positioned on top of tripods overseeing the arenas were turned on, the doors were removed and social approach behavior was recorded for 10 min under low red light.

[3] = system: 129S1/SvImJ mice; test: marble burying test in 129S1/SvImJ mice, acute treatment; type: in vivo, mouse; conditions: 129S, acetaminophen 100 mg/kg i.p., FIG. 3d
Method: as §2

[4] = system: BTBR mice; test: three-chamber social novelty test in BTBR mice; type: in vivo, mouse; conditions: WIN 55,212-2 0.1 mg/kg i.p.; for time in the chamber with the novel stranger / chamber entries: acetaminophen 100 mg/kg; for time in the chamber with the novel stranger: vs controls; for chamber entries: social novelty test, BTBR
Method: as §2
(§3) The social approach test ended with confinement of the subject into the center chamber and closing of the slat doors. A new stranger mouse was then placed under the empty cup cage, the doors were opened, and behavior was recorded for another 10 min under low red light to assess preference for social novelty. At the end of the test, stranger mice were returned to their home cages for use in subsequent tests, and subject mice were removed from the arena and placed in a marble burying test. The number of boli in the center of the arena was counted prior to cleaning the arena with a solution of 70% EtOH and paper towels prior to conditioning and testing the next animal. Digital videos were analyzed for box entries, time in box and social sniffing time by observers blind to mouse strain or drug treatments.

[5] = system: 5-HT receptors; conditions: literature; cited from earlier work
[6] = system: 129S1/SvImJ mice; test: three-chamber social novelty test in 129S1/SvImJ mice; type: in vivo, mouse; conditions: 129S, FIG. 3c; for time in the arena chamber with a new stranger mouse: acetaminophen 100 mg/kg i.p.
Method: as §2, §3

[7] = system: BTBR mice; test: 2-AG levels after injections in early postnatal development; type: in vivo, mouse; conditions: 100 mg/kg i.p. injections from 18-21 days postnatal, 59 days, FIG. 6
Method: (§4) The mice were then tested for marble burying and evaluated for neurochemical measures.

[8] = system: 129S1/SvImJ mice; test: three-chamber social approach test in 129S1/SvImJ mice; type: in vivo, mouse; conditions: 129S
From the text: as §1, §2
The three-chamber sociability testing procedure for mice is described in detail in Yang et al. Curr. Protoc. Neurosci., Chapter 8: Unit 8. 26 (2011), our study was conducted in a manner consistent with that protocol. Mice were introduced into the center chamber of an acrylic three-chamber sociability arena, measuring 30×22×61 cm with a light tan bottom, black side walls and two transparent interior walls with slat door openings of 10 cm^2 […] dividing the arena into 3 chambers, for 20 min prior to behavioral testing. As described in Gould et al. J. Neurochem., 116: 291-303 (2011), pre-conditioning was performed under low red light (16 lux) at first for 10 min with the mouse confined in the center chamber, then with the doors opened so the subject could explore the entire arena for 10 min longer. […] Digital video cameras (Hewlett-Packard Photosmart™ R742, Palo Alto, Calif., USA) positioned on top of tripods overseeing the arenas were turned on, the doors were removed and social approach behavior was recorded for 10 min under low red light.

[9] = system: BTBR and C57BL/6 mice; test: marble burying after injections in early postnatal development; type: in vivo, mouse; conditions: 100 mg/kg i.p. injections from 18-21 days postnatal, 59 days, FIG. 5
Method: as §4

[10] = system: BTBR mice; test: marble burying test in BTBR mice, acute treatment; type: in vivo, mouse; conditions: 30 min, FIG. 2d
Method: as §2

[11] = system: 5-HT neurons; conditions: literature; cited from earlier work

**Q.** With CCCCC/C=C\C/C=C\C/C=C\C/C=C\CCCC(=O)NCCO [anandamide, N-arachidonoylethanolamine] as the compound, how does the social interactions [1] read?
**A.** The social interactions was “promote social interactions in mice”.

**Q.** For CC(=O)Nc1ccc(O)cc1 [acetaminophen], which “dwelling near confined stranger mice” value ([2]; 100 mg/kg i.p. 50 min prior to testing, adult male BTBR, FIG. 1) is on record?
**A.** The value was “increased dwelling near confined stranger mice”.

**Q.** What about the “dwelling near confined stranger mice” value ([2]; 400 mg/kg i.p. 50 min prior to testing, adult male BTBR, FIG. 1) of the same compound?
**A.** The value was “increased dwelling near confined stranger mice”.

**Q.** What about the “time in the chamber with the empty cage” value ([2]; acetaminophen 100 mg/kg i.p., vs vehicle controls or WIN 55,212-2 0.1 mg/kg) of the same compound?
**A.** Its value is “less time in the chamber with the empty cage”.

**Q.** And the “time in the chamber with the stranger mouse” value ([2]; acetaminophen 100 mg/kg i.p., vs vehicle controls or WIN 55,212-2 0.1 mg/kg, FIG. 2a)?
**A.** The value was “increased dwelling near stranger mice; also recorded: spent more time in the chamber with the stranger mouse”.

**Q.** What about the “lowest dose to significantly increase time spent in the chamber with a stranger mouse above saline-injected controls” value ([2]; adult male BTBR, dose-response 1-400 mg/kg i.p., FIG. 1) of the same compound?
**A.** The value was 100 mg/kg.

**Q.** What about the marble burying [3] of the same compound?
**A.** Its marble burying is “greater than in vehicle-control or WIN 55,212-2 treated 129S mice”.

**Q.** And the marble burying ([3]; listed as Acetaminophen)?
**A.** The marble burying was “increased marble burying behavior relative to control or WIN 55,212 treatments”.

**Q.** And the “time in the chamber with the novel stranger” value ([4]; FIG. 2c)?
**A.** The value was “reduced time spent in the chamber of the arena with a novel stranger; also recorded: spent less time in the box with the novel stranger than controls”.

**Q.** What about the chamber entries [4] of the same compound?
**A.** The chamber entries was 50±7.

**Q.** What about the “affinity for 5-HT receptors” value [5] of the same compound?
**A.** The value was “little to no affinity for 5-HT receptors”.

**Q.** And the “time in the arena chamber with a new stranger mouse” value [6]?
**A.** The value was “spent significantly more time than controls in the arena chamber with a new stranger mouse”.

**Q.** What about the “time in the arena chamber with a new stranger mouse” value ([6]; listed as Acetaminophen) of the same compound?
**A.** The value was “increased dwelling near new strangers relative to controls”.

**Q.** What about the 2-AG levels [7] of the same compound?
**A.** Its 2-AG levels is “significant affect on 2-AG levels; also recorded: diminution of 2-AG levels”.

**Q.** And the “time spent sniffing the stranger mouse or investigating the empty cage” value ([8]; FIG. 3b)?
**A.** Its value is “trend toward acetaminophen-treated 129S mice spending more time investigating strangers that did not reach significance”.

**Q.** What about the chamber entries ([8]; acetaminophen 100 mg/kg, WIN 55,212-2 0.1 mg/kg i.p.) of the same compound?
**A.** The chamber entries was 21±5.

**Q.** What about the marble burying behavior [9] of the same compound?
**A.** The marble burying behavior was “induced significant marble burying behavior”.

**Q.** What about the social interactions [1] of the same compound?
**A.** Its social interactions is “promote social interactions in mice”.

**Q.** For Cc1c(C(=O)c2cccc3ccccc23)c2cccc3c2n1[C@H](CN1CCOCC1)CO3 [WIN 55,212-2], which marbles buried [10] is on record?
**A.** Its marbles buried is “trend toward WIN 55212 treated mice burying fewer than controls”.

**Q.** What about the “time in the arena center” value ([2]; WIN 55,212-2 0.1 mg/kg i.p., social approach, FIG. 2a) of the same compound?
**A.** The value was “increased lingering in the arena center”.

**Q.** What about the “time in the arena center” value ([4]; social novelty, FIG. 2c) of the same compound?
**A.** The value was “reduced dwelling in the arena center; also recorded: spent less time than the other groups in the arena center”.

**Q.** And the “time in the chamber with the novel stranger” value ([4]; FIG. 2c)?
**A.** Its value is “reduced time spent in the chamber of the arena with a novel stranger; also recorded: spent less time in the box with the novel stranger than controls”.

**Q.** What about the chamber entries [4] of the same compound?
**A.** The chamber entries was 19±3.

**Q.** And the “dwelling in the center chamber” value ([6]; WIN 55,212-2 0.1 mg/kg i.p.)?
**A.** Its value is “increased dwelling in the center chamber of the arena”.

**Q.** And the “presynaptic 5-HT release in brain” value [11]?
**A.** The value was “inhibit presynaptic 5-HT release in brain”.

**Q.** And the “time in the center chamber” value ([8]; WIN 55,212-2 0.1 mg/kg i.p.)?
**A.** Its value is “increased time spent by 129S mice in the arena center; also recorded: spent more time than acetaminophen (100 mg/kg) or vehicle (saline±10% DMSO) treated mice in the center chamber”.

Reference: patent US20170252469A9, “Method for predicting autism spectrum disorders by cannabinoid and cannabinoid receptor expression” (The United of America as represented by the Secretary of …, priority 2011, published 2017)
